Patent US12384852B2, “Genetically modified NK-92 cells having a safety switch” (ImmunityBio, Inc., priority 2015, dated 2025)

Legend:
[1] = clinical studies; cited from earlier work
NK-92-TK-CD16-IL-2 cells = assay: Functionality of the TK suicide gene: ganciclovir treatment of mice carrying NK-92-TK-CD16-IL-2 cells; type: in vivo, SCID mice; conditions: ganciclovir 50 μg i.p. every other day, two or three doses; within 24 hours to 72 hours
Description: The mice in the first group are treated with two or three doses of ganciclovir (50 μg) intraperitoneally every other day. The mice in the second group are treated with placebo. […] Expansion of NK-92-TK-CD16-IL-2 cells continues to increase over time in mice treated with placebo.

Row | Compound | tolerability [1] | change in NK-92-TK-CD16-IL-2 cells (NK-92-TK-CD16-IL-2 cells)
1 | CC[C@H](C(=O)N1CCCC[C@H]1C(=O)O[C@H](CCc1ccc(OC)c(OC)c1)c1cccc(OCC(=O)NCCNC(=O)COc2cccc([C@@H](CCc3ccc(OC)c(OC)c3)OC(=O)[C@@H]3CCCCN3C(=O)[C@@H](CC)c3cc(OC)c(OC)c(OC)c3)c2)c1)c1cc(OC)c(OC)c(OC)c1 [AP1903] | well tolerated | –
2 | Nc1nc(O)c2ncn(COC(CO)CO)c2n1 [ganciclovir] | – | significant reduction
